In US20100209345A1, “Fluorinated Ligands for Targeting Peripheral Benzodiazepine Receptors” (Australian Nuclear Science & Technology Organisation, priority 2006, published 2010):
Entries after “also recorded” stand apart in the source; their conditions may differ.

Columns and labels:
[1] = target: T1, peripheral benzodiazepine receptors (Rattus norvegicus, UniProt P16257); assay: In vivo blocking / competition of tracer uptake by pre-treatment with PBR and CBR ligands; conditions: rats; for Tracer uptake after pre-treatment with PK 11195 / Tracer uptake after pre-treatment with Ro 5-4864: PBR-expressing tissues (brain/peripheral organs, adrenals apart); for Tracer uptake after pre-treatment with flumazenil (central benzodiazepine ligand): flumazenil 1 mg/kg 5 min prior to tracer, brain or peripheral organs
T1 construct: high uptake in the tissues which have known PBR sites; from tissue; host or cells: organs of living SD rats (brain and peripheral tissues), in vivo
Summary of the method: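 SD rats received PBR ligands PK11195 or Ro 5-4864, or the CBR ligand flumazenil, at 1 mg/kg 5 min before tracer injection. Brain and peripheral tissue uptake analysed at 15, 30 min, 1 and 4 h p.i.; significance set at p<0.05 and p<0.01 versus normals or controls.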

[2] = Biodistribution of 18F-labelled tracers in rats; type: in vivo
Summary of the method: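 Sprague-Dawley rats received 18F tracer, and brain and peripheral tissues were analysed at 15 and 30 min and 1 and 4 h post-injection. For specificity, rats were pretreated 5 min beforehand with PK11195 or Ro 5-4864 (PBR) or flumazenil (CBR), each at 1 mg/kg.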

[3] = SD rats, 15 min, decay correction not stated
[4] = SD rats, 4 hours, decay correction not stated
[5] = rats, 15 min, corrected for decay of 18F
[6] = rats, 15 min, not corrected for decay of 18F
[7] = rats, 30 min, corrected for decay of 18F
[8] = rats, 30 min, not corrected for decay of 18F
[9] = rats, 60 min (1 hour), not corrected for decay of 18F
[10] = rats, 60 min, corrected for decay of 18F
[11] = rats, 4 hours, corrected for decay of 18F
[12] = rats, 4 hours, not corrected for decay of 18F

## CCN(CC)C(=O)Cc1c(-c2ccc(OCCCF)cc2)nc2ccc(Cl)cn12 [PBR111, 2-(2-(4-(3-fluoropropoxy)phenyl)-6-chloroimidazo[1,2-a]pyridin-3-yl)-N,N-diethylacetamide]
[1]; 1 mg/kg 5 min prior to tracer, olfactory regions
  Tracer uptake in the olfactory regions after pre-treatment with PK 11195 and Ro 5-4864: non-significant decrease
[1]; PK 11195 1 mg/kg 5 min prior to tracer
  Tracer uptake after pre-treatment with PK 11195: decreased
[1]; PK 11195 1 mg/kg 5 min prior to tracer, listed as [^18F]PBR111
  Tracer uptake after pre-treatment with PK 11195: reduced uptake; also recorded: blocking effect
[1]; PK 11195 1 mg/kg 5 min prior to tracer, adrenals
  Tracer uptake in the adrenals after pre-treatment with PK 11195: increase
[1]; Ro 5-4864 1 mg/kg 5 min prior to tracer
  Tracer uptake after pre-treatment with Ro 5-4864: decreased
[1]; Ro 5-4864 1 mg/kg 5 min prior to tracer, listed as [^18F]PBR111
  Tracer uptake after pre-treatment with Ro 5-4864: reduced uptake; also recorded: blocking effect
[1]; Ro 5-4864 1 mg/kg 5 min prior to tracer, adrenals
  Tracer uptake in the adrenals after pre-treatment with Ro 5-4864: increase
[1]
  Tracer uptake after pre-treatment with flumazenil (central benzodiazepine ligand): no effect
[1]; listed as [^18F]PBR111
  Tracer uptake after pre-treatment with flumazenil (central benzodiazepine ligand): does not compete; also recorded: does not reduce
[1]; non-radioactive analogue 1 mg/kg, PBR-expressing tissues, listed as [^18F]PBR111
  Tracer uptake after pre-treatment with the non-radioactive analogue: reduced uptake; also recorded: blocking effect
[2]; [3]
  Biodistribution: Blood: 0.4 % ID/g
  Biodistribution: Bone: 0.87 % ID/g
  Biodistribution: Kidney: 3.2 % ID/g
  Biodistribution: Olfactory bulbs: 0.64 % ID/g
[2]; SD rats, 30 min, decay correction not stated
  Biodistribution: Adrenals: 6.5 % ID/g
[2]; [4]
  Biodistribution: Adrenals: 16 % ID/g
  Biodistribution: Blood: 0.1 % ID/g
  Biodistribution: Bone: 4.3 % ID/g
  Biodistribution: Kidney: 2.3 % ID/g
  Biodistribution: Olfactory bulbs: 0.41 % ID/g
[2]; [5]
  Biodistribution: Bone: 0.87 ± 0.12 % ID/g
  Biodistribution: Heart: 6.76 ± 0.82 % ID/g
  Biodistribution: Lungs: 14.39 ± 2.19 % ID/g
  Biodistribution: Skin: 0.34 ± 0.03 % ID/g
[2]; [6]
  Biodistribution: Adrenals: 8.36 ± 2.02 % ID/g
  Biodistribution: Bladder: 0.67 ± 0.36 % ID/g
  Biodistribution: Blood: 0.48 ± 0.11 % ID/g
  Biodistribution: Bone: 0.99 ± 0.18 % ID/g
  Biodistribution: Brain: 0.31 ± 0.06 % ID/g
  Biodistribution: GIT: 1.21 ± 0.11 % ID/g
  Biodistribution: Heart: 7.75 ± 1.08 % ID/g
  Biodistribution: Kidney: 5.18 ± 0.67 % ID/g
  Biodistribution: Liver: 1.54 ± 0.20 % ID/g
  Biodistribution: Lungs: 16.45 ± 2.81 % ID/g
  Biodistribution: Muscle: 0.68 ± 0.16 % ID/g
  Biodistribution: Olfactory bulbs: 0.74 ± 0.14 % ID/g
  Biodistribution: Pancreas: 2.33 ± 0.33 % ID/g
  Biodistribution: Skin: 0.39 ± 0.06 % ID/g
  Biodistribution: Spleen: 8.25 ± 2.25 % ID/g
  Biodistribution: Stomach: 0.95 ± 0.23 % ID/g
  Biodistribution: Testes: 0.35 ± 0.05 % ID/g
  Biodistribution: Thymus: 1.07 ± 0.23 % ID/g
  Biodistribution: Thyroid: 11.40 ± 0.33 % ID/g
[2]; [7]
  Biodistribution: Bone: 1.22 ± 0.10 % ID/g
  Biodistribution: Heart: 6.63 ± 0.35 % ID/g
  Biodistribution: Lungs: 8.41 ± 0.77 % ID/g
  Biodistribution: Skin: 0.37 ± 0.02 % ID/g
[2]; [8]
  Biodistribution: Adrenals: 9.06 ± 3.47 % ID/g
  Biodistribution: Bladder: 0.76 ± 0.16 % ID/g
  Biodistribution: Blood: 0.33 ± 0.11 % ID/g
  Biodistribution: Bone: 1.35 ± 0.27 % ID/g
  Biodistribution: Brain: 0.19 ± 0.04 % ID/g
  Biodistribution: GIT: 1.38 ± 0.36 % ID/g
  Biodistribution: Heart: 7.30 ± 0.90 % ID/g
  Biodistribution: Kidney: 4.77 ± 1.05 % ID/g
  Biodistribution: Liver: 0.94 ± 0.28 % ID/g
  Biodistribution: Lungs: 9.27 ± 1.60 % ID/g
  Biodistribution: Muscle: 0.62 ± 0.15 % ID/g
  Biodistribution: Olfactory bulbs: 0.60 ± 0.14 % ID/g
  Biodistribution: Pancreas: 1.49 ± 0.29 % ID/g
  Biodistribution: Skin: 0.41 ± 0.06 % ID/g
  Biodistribution: Spleen: 6.54 ± 1.35 % ID/g
  Biodistribution: Stomach: 1.18 ± 0.34 % ID/g
  Biodistribution: Testes: 0.38 ± 0.07 % ID/g
  Biodistribution: Thymus: 1.23 ± 0.47 % ID/g
  Biodistribution: Thyroid: 13.24 ± 4.62 % ID/g
[2]; [9]
  Biodistribution: Adrenals: 12.11 ± 3.32 % ID/g
  Biodistribution: Bladder: 1.24 ± 0.29 % ID/g
  Biodistribution: Blood: 0.24 ± 0.08 % ID/g
  Biodistribution: Bone: 2.41 ± 0.24 % ID/g
  Biodistribution: Brain: 0.17 ± 0.04 % ID/g
  Biodistribution: GIT: 1.89 ± 0.37 % ID/g
  Biodistribution: Heart: 8.41 ± 1.91 % ID/g
  Biodistribution: Kidney: 5.08 ± 1.23 % ID/g
  Biodistribution: Liver: 0.82 ± 0.22 % ID/g
  Biodistribution: Lungs: 7.29 ± 2.12 % ID/g
  Biodistribution: Muscle: 0.55 ± 0.11 % ID/g
  Biodistribution: Olfactory bulbs: 0.65 ± 0.14 % ID/g
  Biodistribution: Pancreas: 1.24 ± 0.36 % ID/g
  Biodistribution: Skin: 0.54 ± 0.07 % ID/g
  Biodistribution: Spleen: 6.72 ± 1.91 % ID/g
  Biodistribution: Stomach: 0.91 ± 0.06 % ID/g
  Biodistribution: Testes: 0.51 ± 0.09 % ID/g
  Biodistribution: Thymus: 1.39 ± 0.29 % ID/g
  Biodistribution: Thyroid: 13.04 ± 3.22 % ID/g
[2]; [10]
  Biodistribution: Bone: 2.04 ± 0.09 % ID/g
  Biodistribution: Lungs: 5.68 ± 1.03 % ID/g
  Biodistribution: Skin: 0.46 ± 0.02 % ID/g
[2]; [11]
  Biodistribution: Bone: 4.32 ± 0.33 % ID/g
  Biodistribution: Lungs: 3.02 ± 0.39 % ID/g
  Biodistribution: Skin: 0.63 ± 0.04 % ID/g
[2]; [12]
  Biodistribution: Adrenals: 17.81 ± 3.61 % ID/g
  Biodistribution: Bladder: 1.33 ± 0.17 % ID/g
  Biodistribution: Blood: 0.12 ± 0.02 % ID/g
  Biodistribution: Bone: 4.86 ± 0.86 % ID/g
  Biodistribution: Brain: 0.10 ± 0.02 % ID/g
  Biodistribution: GIT: 2.01 ± 0.27 % ID/g
  Biodistribution: Heart: 4.92 ± 0.66 % ID/g
  Biodistribution: Kidney: 2.57 ± 0.48 % ID/g
  Biodistribution: Liver: 0.44 ± 0.07 % ID/g
  Biodistribution: Lungs: 3.37 ± 0.40 % ID/g
  Biodistribution: Muscle: 0.19 ± 0.05 % ID/g
  Biodistribution: Olfactory bulbs: 0.47 ± 0.06 % ID/g
  Biodistribution: Pancreas: 0.61 ± 0.10 % ID/g
  Biodistribution: Skin: 0.71 ± 0.07 % ID/g
  Biodistribution: Spleen: 3.45 ± 0.43 % ID/g
  Biodistribution: Stomach: 0.51 ± 0.06 % ID/g
  Biodistribution: Testes: 0.67 ± 0.08 % ID/g
  Biodistribution: Thymus: 1.88 ± 0.40 % ID/g
  Biodistribution: Thyroid: 8.91 ± 1.19 % ID/g
